Like-named read-outs stand apart in the source and are kept apart here.

Format in all cases: cell-based
Data set [1] is described as follows: Cytotoxicity determination in HepG2.2.15 cells (CCK-8). The following applies: human, HepG2.2.15 cells, HepG2.2.15 cells, 5,000 cells/well, 6 days of compound treatment, CCK-8 absorbance 450 nm, highest concentration 100 uM. On the procedure:
(§1) • HepG2.2.15 (the HepG2.2.15 cell line can be produced by transfection of the HepG2 cell line as described in Sells, Chen, and Acs 1987 (Proc. Natl. Acad. Sci. USA 84: 1005-1009), and the HepG2 cell line is available from ATCC® under number HB-8065™)
(§2) Seed the cell HepG2.2.15 cells into 96-well plate in 2% FBS culture medium at the density of 40,000 cells/well and 5,000 cells/well for HBV inhibitory activity and cytotoxicity determination, respectively. After seeding, incubate the cell plates at 37° C., 5% CO2 overnight. The next day, medium containing compounds is added to the cell to treat the cells for 6 days with medium refreshed once in the middle of the treatment. 8 dose points with 3 folds dilution of each compound were adopted and the highest concentration of the compounds is 10 uM and 100 uM for HBV inhibitory activity and cytotoxicity determination, respectively.
(§3) After 6 days of compounds treatment, add 20 μl CCK-8 reagents to each well of cytotoxicity assay plates, incubate the plate at 37° C., 5% CO2 for 2.5 h and measure the absorbance at 450 nm wavelength, at the same time read the absorbance at 630 nm wavelength as reference.
(§4) EC50 and CC50 values are calculated by the GRAPHPAD PRISM software.

Another data set has as its system HBV. The data set can be described thus: HBV inhibitory activity in HepG2.2.15 cells (HBV DNA in culture medium by q-PCR). The following applies: HepG2.2.15 cells, 40,000 cells/well, 6 days of compound treatment, HBV DNA in culture medium by q-PCR, highest concentration 10 uM, read-out: EC50. On the procedure:
as §1, §2
The HBV DAN change in the cell culture medium induced by the compounds is measured by q-PCR method. Briefly, the HBV DNA in the culture medium is extracted using QIAamp 96 DNA Blood Kit according to the manual and then quantified by q-PCR using the primers and probe in the table below.
as §4

In the next data set the test system is HepG2.2.15 cells. The data set can be described thus: Cytotoxicity determination in HepG2.2.15 cells (CCK-8). The following applies: HepG2.2.15 cells, 5,000 cells/well, 6 days of compound treatment, CCK-8 absorbance 450 nm, highest concentration 100 uM. On the procedure:
as §1, §2, §3, §4

Where [2] appears, read: Hepatitis B virus, HepG2.2.15, 144 h.

On to `CCOC(=O)C1=C(C2CCc3[nH]ncc3C2)NC(c2nccs2)=NC1c1ccc(F)c(F)c1Cl` (stereo not drawn) [Compound 66, Ethyl 4-(2-chloro-3,4-difluorophenyl)-6-(4,5,6,7-tetrahydro-1H-indazol-5-yl)-2-(thiazol-2-yl)-1,4-dihydropyrimidine-5-carboxylate], for which the CC50 at 6 days in data set [1] was determined as 6400 nM. Moreover, in the data set with HBV (setting [2]), the EC50 was 64.7 nM.
Turning to `CCOC(=O)C1=C(C2CCc3nn(CC(C)(C)C(=O)O)cc3C2)NC(c2nccs2)=NC1c1ccc(F)c(F)c1Cl` (single isomer, unassigned) [Compound 53a, 3-(5-(6-(2-Chloro-3,4-difluorophenyl)-5-(ethoxycarbonyl)-2-(thiazol-2-yl)-3,6-dihydropyrimidin-4-yl)-4,5,6,7-tetrahydro-2H-indazol-2-yl)-2,2-dimethylpropanoic acid], the CC50 at 6 days in data set [1] came to 7200 nM. Moreover, the EC50 in the data set on HBV worked out at 132 nM.
Regarding `CCOC(=O)C1=C(C2CCc3oc(CCC(=O)O)nc3C2)NC(c2nccs2)=NC1c1ccc(F)c(F)c1Cl` (single isomer, unassigned) [Compound 57c, 3-(5-(6-(2-Chloro-3,4-difluorophenyl)-5-(ethoxycarbonyl)-2-(thiazol-2-yl)-3,6-dihydropyrimidin-4-yl)-4,5,6,7-tetrahydrobenzo[d]oxazol-2-yl)propanoic acid], half-maximal cytotoxicity in data set [1] (CC50 at 6 days) was put at 7700 nM. In addition, the 50% effective concentration (EC50) in the data set with HBV was found to be 12.5 nM.
`COC(=O)C1=C(C2CCc3nn(CCC(=O)O)cc3C2)NC(c2nccs2)=NC1c1cccc(F)c1Br` (single isomer, unassigned) [Compound 45b, 3-(5-(6-(2-Bromo-3-fluorophenyl)-5-(methoxycarbonyl)-2-(thiazol-2-yl)-3,6-dihydropyrimidin-4-yl)-4,5,6,7-tetrahydro-2H-indazol-2-yl)propanoic acid]: the midpoint of cytotoxicity in data set [1], the CC50 at 6 days, lay at 18200 nM. The EC50 in the data set on HBV was determined as 213 nM.
Turning to `COC(=O)C1=C(C2CCc3nn(CC(C)(C)C(=O)O)cc3C2)NC(c2nccs2)=NC1c1ccc(F)c(F)c1Cl` (stereo not drawn) [Compound 84d, 3-(5-(6-(2-chloro-3,4-difluorophenyl)-5-(methoxycarbonyl)-2-(thiazol-2-yl)-3,6-dihydropyrimidin-4-yl)-4,5,6,7-tetrahydro-2H-indazol-2-yl)-2,2-dimethylpropanoic acid], in data set [1], the CC50 at 6 days was 16400 nM. Further, in the data set on HBV (setting [2]), the EC50 amounted to 18.8 nM.
`CCOC(=O)C1=C(C2CCc3sc(CCC(=O)O)nc3C2)NC(c2nccs2)=NC1c1ccc(F)c(F)c1Cl` (single isomer, unassigned) [Compound 59c, 3-(5-(6-(2-Chloro-3,4-difluorophenyl)-5-(ethoxycarbonyl)-2-(thiazol-2-yl)-3,6-dihydropyrimidin-4-yl)-4,5,6,7-tetrahydrobenzo[d]thiazol-2-yl)propanoic acid] displayed a CC50 at 6 days in data set [1] of 4100 nM. In addition, the EC50 in the data set with HBV (setting [2]) was 132 nM.
`COC(=O)C1=C(C2CCc3nn(CCC(C)(C)C(=O)O)cc3C2)NC(c2nccs2)=NC1c1ccc(F)c(F)c1Cl` (stereo not drawn) [Compound 90c, 4-(5-(6-(2-Chloro-3,4-difluorophenyl)-5-(methoxycarbonyl)-2-(thiazol-2-yl)-3,6-dihydropyrimidin-4-yl)-4,5,6,7-tetrahydro-2H-indazol-2-yl)-2,2-dimethylbutanoic acid] returned a CC50 at 6 days in data set [1] of 13300 nM. Further, in the data set on HBV (setting [2]), the EC50 came to 24.9 nM.
On to `CCOC(=O)C1=C(C2CCc3nn(C(C)CC(=O)O)cc3C2)NC(c2nccs2)=NC1c1ccc(F)c(F)c1Cl` (single isomer, unassigned) [Compound 52d, 3-(5-(6-(2-chloro-3,4-difluorophenyl)-5-(ethoxycarbonyl)-2-(thiazol-2-yl)-3,6-dihydropyrimidin-4-yl)-4,5,6,7-tetrahydro-2H-indazol-2-yl)butanoic acid], for which the CC50 in the data set with HepG2.2.15 cells was found to be 10500 nM. The EC50 in the data set on HBV was 12.4 nM.
In the data set on HepG2.2.15 cells, `COC(=O)C1=C(C2CCc3nn(CCC(=O)O)cc3C2)NC(c2nccs2)=NC1c1ccc(F)c(F)c1Cl` (single isomer, unassigned) [Compound 70d, 3-(-5-(6-(2-chloro-3,4-difluorophenyl)-5-(methoxycarbonyl)-2-(thiazol-2-yl)-3,6-dihydropyrimidin-4-yl)-4,5,6,7-tetrahydro-2H-indazol-2-yl)propanoic acid] registered a CC50 of 24300 nM. For the same molecule, the EC50 in the data set on HBV came to 8.03 nM.
In the data set on HepG2.2.15 cells, `COC(=O)C1=C(C2CCc3nn(CCC(=O)O)cc3C2)NC(c2nccs2)=NC1c1ccc(F)cc1Cl` (single isomer, unassigned) [Compound 47b, 3-(5-(6-(2-Chloro-4-fluorophenyl)-5-(methoxycarbonyl)-2-(thiazol-2-yl)-3,6-dihydropyrimidin-4-yl)-4,5,6,7-tetrahydro-2H-indazol-2-yl)propanoic acid] displayed a CC50 of 37700 nM. The EC50 in the data set with HBV came to 470 nM.
For `CCOC(=O)C1=C(C2CCc3nn(CCC(=O)O)cc3C2)NC(c2nccs2)=NC1c1ccc(F)cc1C` (single isomer, unassigned) [Compound 38b, 3-(5-(5-(Ethoxycarbonyl)-6-(4-fluoro-2-methylphenyl)-2-(thiazol-2-yl)-3,6-dihydropyrimidin-4-yl)-4,5,6,7-tetrahydro-2H-indazol-2-yl)propanoic acid], in that order: 22900 nM and 667 nM.
For `COC(=O)C1=C(C2CCc3nn(CCC(=O)O)cc3C2)NC(c2nccs2)=NC1c1ccc(F)cc1Cl` (single isomer, unassigned) [Compound 47c, 3-(5-(6-(2-Chloro-4-fluorophenyl)-5-(methoxycarbonyl)-2-(thiazol-2-yl)-3,6-dihydropyrimidin-4-yl)-4,5,6,7-tetrahydro-2H-indazol-2-yl)propanoic acid], in that order: over 100000 nM and 147 nM.
For `CCOC(=O)C1=C(C2CCc3nn(CCC(=O)O)cc3C2)NC(c2nccs2)=NC1c1cccc(F)c1C` (single isomer, unassigned) [Compound 41c, 3-(5-(5-(Ethoxycarbonyl)-6-(3-fluoro-2-methylphenyl)-2-(thiazol-2-yl)-3,6-dihydropyrimidin-4-yl)-4,5,6,7-tetrahydro-2H-indazol-2-yl)propanoic acid], in that order: 14400 nM and 30.4 nM.
Molecule `CCOC(=O)C1=C(C2CCc3nn(CCC(=O)O)cc3C2)NC(c2nccs2)=NC1c1ccc(F)c(F)c1Br` (single isomer, unassigned) [Compound 36b, 3-(5-(6-(2-Bromo-3,4-difluorophenyl)-5-(ethoxycarbonyl)-2-(thiazol-2-yl)-3,6-dihydropyrimidin-4-yl)-4,5,6,7-tetrahydro-2H-indazol-2-yl)propanoic acid] returned a CC50 in the data set with HepG2.2.15 cells of 11700 nM. For the same molecule, the EC50 with HBV stood at 96.5 nM.
For `CCOC(=O)C1=C(C2CCc3nn(C(C)CC(=O)O)cc3C2)NC(c2nccs2)=NC1c1ccc(F)c(F)c1Cl` (single isomer, unassigned) [Compound 51c, 3-(5-(6-(2-chloro-3,4-difluorophenyl)-5-(ethoxycarbonyl)-2-(thiazol-2-yl)-3,6-dihydropyrimidin-4-yl)-4,5,6,7-tetrahydro-2H-indazol-2-yl)butanoic acid] the same measures were 8600 nM and 9.7 nM.
In the case of `COC(=O)C1=C(C2CCc3nn(CCC(=O)O)cc3C2)NC(c2nccs2)=NC1c1ccc(F)c(F)c1Br` (single isomer, unassigned) [Compound 46d, 3-(5-(6-(2-Bromo-3,4-difluorophenyl)-5-(methoxycarbonyl)-2-(thiazol-2-yl)-3,6-dihydropyrimidin-4-yl)-4,5,6,7-tetrahydro-2H-indazol-2-yl)propanoic acid], the half-maximal cytotoxic concentration (CC50) with HepG2.2.15 cells amounted to 10700 nM. Also, in the data set with HBV, the EC50 was 13.6 nM.
For `CCOC(=O)C1=C(C2CCc3nn(CCC(=O)O)cc3C2)NC(c2nccs2)=NC1c1cccc(F)c1Cl` (single isomer, unassigned) [Compound 40c, 3-(5-(6-(2-Chloro-3-fluorophenyl)-5-(ethoxycarbonyl)-2-(thiazol-2-yl)-3,6-dihydropyrimidin-4-yl)-4,5,6,7-tetrahydro-2H-indazol-2-yl)propanoic acid], in that order: 12500 nM and 33.1 nM.
In turn, `CCOC(=O)C1=C(C2CCc3cn(CCC(=O)O)nc3C2)NC(c2nccs2)=NC1c1ccc(F)c(F)c1Cl` (single isomer, unassigned) [Compound 61c, 3-(6-(6-(2-Chloro-3,4-difluorophenyl)-5-(ethoxycarbonyl)-2-(thiazol-2-yl)-3,6-dihydropyrimidin-4-yl)-4,5,6,7-tetrahydro-2H-indazol-2-yl)propanoic acid] yielded a CC50 with HepG2.2.15 cells of 29000 nM. For the same molecule, in the data set with HBV, the concentration for a half-maximal effect (EC50) came to 125 nM.

What is called CC50 is the concentration at which the toxic effect on the cells reaches its halfway point. In general, EC50 refers to the concentration that produces a half-maximal response.

(Values after patent US20210220356A1, “DIHYDROPYRIMIDINE DERIVATIVES AND USES THEREOF IN THE TREATMENT OF HBV INFECTION OR OF HBV-INDUCED DISEASES” (Janssen Sciences Ireland Unlimited Company, priority 2018, published 2021).)
